What was measured:
D2S receptor = D2S receptor (Homo sapiens, UniProt P14416); assay: D2S receptor functional assay (cAMP assay, antagonist); format: cell-based; conditions: antagonist activity, CHO-K1/D2 cells, read-out: D2SR, IC50
Alpha1A receptor = biological target: T1, Alpha1A receptor (Homo sapiens, UniProt P35348); assay: Alpha1A receptor functional assay (calcium flow, FLIPR); format: cell-based; conditions: HEK293/Alpha1A cells, read-out: Alpha1AR, IC50
T1 construct: expressed in transfected cells; host or cells: HEK293/Alpha1A (constructed by Shanghai shujing Biopharma)
T1 sequence (P35348 1-466): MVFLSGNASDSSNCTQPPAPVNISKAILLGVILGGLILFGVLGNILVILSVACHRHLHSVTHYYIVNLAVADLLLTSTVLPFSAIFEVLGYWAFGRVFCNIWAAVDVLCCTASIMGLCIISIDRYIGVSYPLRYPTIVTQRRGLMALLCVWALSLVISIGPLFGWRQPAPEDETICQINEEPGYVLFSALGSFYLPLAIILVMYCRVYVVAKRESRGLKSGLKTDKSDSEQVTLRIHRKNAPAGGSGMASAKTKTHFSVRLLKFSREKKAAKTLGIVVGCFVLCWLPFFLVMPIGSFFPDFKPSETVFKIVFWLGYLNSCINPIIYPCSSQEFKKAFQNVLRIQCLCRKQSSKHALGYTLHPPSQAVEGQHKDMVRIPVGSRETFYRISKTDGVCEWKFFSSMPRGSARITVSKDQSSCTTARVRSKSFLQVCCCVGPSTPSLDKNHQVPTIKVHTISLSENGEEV

male ICR mice = assay: Forced swimming test in mice; format: in vivo; conditions: single oral dose; NH300094 0.03 mg/kg; risperidone 0.01, 0.03 and 0.1 mg/kg
Experimental: Each mouse was required to swim in an open cylindrical container (height of 25 cm, diameter of 10 cm) after intragastric administration of compounds 1 h. The container contained 1.2 L of water with temperature maintained at 24°C ± 1°C. The test used a computerized analysis and tracking system (Clever Sys Inc., Leesburg, VA) to recorded the duration of immobility (last 4 min of a total time of 6 min) about the testing mice.

5-HT1A receptor = biological target: T2, 5-HT1A receptor (Homo sapiens, UniProt P08908); assay: 5-HT1A receptor functional assay (cAMP assay, antagonist); format: cell-based; conditions: antagonist activity, CHO-K1/5-HT1A cells, read-out: 5HT1AR, IC50
T2 sequence (P08908 1-422): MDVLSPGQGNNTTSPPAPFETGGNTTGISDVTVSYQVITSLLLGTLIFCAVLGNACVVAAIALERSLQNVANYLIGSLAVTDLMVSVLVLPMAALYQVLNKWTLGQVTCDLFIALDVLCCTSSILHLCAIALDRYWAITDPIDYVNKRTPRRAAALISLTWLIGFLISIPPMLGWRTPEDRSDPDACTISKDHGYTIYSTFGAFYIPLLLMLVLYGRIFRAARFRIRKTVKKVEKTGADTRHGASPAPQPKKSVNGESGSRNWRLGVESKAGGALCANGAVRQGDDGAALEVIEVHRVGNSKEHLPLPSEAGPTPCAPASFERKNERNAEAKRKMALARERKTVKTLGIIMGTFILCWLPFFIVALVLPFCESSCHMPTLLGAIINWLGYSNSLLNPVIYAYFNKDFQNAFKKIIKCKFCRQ

male Wistar rats = assay: Conditioned avoidance response test in rats; format: in vivo; conditions: Rattus norvegicus, single oral dose, read-out: ED50, inhibition of conditioned avoidance response
Text: Shuttle-box Avoidance Test Video Analysis System (DigBehv-SBG, Shanghai Jiliang Software Technology Co. Ltd.) were used to assess the rats conditioned avoidance response.
Phase I: The rats responded to the conditioned stimulus (auditory and visual) by training with foot shock reinforcement. Briefly, rats were placed into the CAR shuttle boxes for a 5-min habituation followed by 30 trials presented on a 20-s variable interval (20–30 s) stimulus. Each rats were subjected to a conditioned stimulus which consisted of 10s presentation of light and white noise, and then followed by a scrambled 1.5 mA foot shock for 10 s. […] Rats with avoidance rates greater than 70% for 3 consecutive days were included in this study post-training.
Phase II: The qualified rats were randomly divided into 7 groups. […] The procedure in the testing phase was the same as the Phase I described. The number of avoidances, escapes, and escape failures were recorded.

[1] = Pharmacokinetics assay in rats; format: in vivo, male SD rats
Experimental: Six male SD rats (7 weeks of age) were randomly divided into two groups with three rats per group. Animals were fasted overnight and had free access to water before dosing. For the intravenous group, male SD rats were administered NH300094 by single intravenous bolus administration at a dose of 2 mg/kg. For the oral group, male SD rats were dosed orally with NH300094 at a dose of 10 mg/kg. Serial blood samples were collected at different time points (Pre-dose, 0.033, 0.083, 0.25, 0.5, 1, 2, 4, 6, 8, 12 and 24 h for the intravenous group; Pre-dose, 0.167, 0.333, 0.5, 1, 2, 4, 6, 8, 10, 12 and 24 h for the oral group) via jugular vein puncture from each study animal. All blood samples were transferred into commercial tube containing K2-EDTA. Plasma samples were prepared by centrifuging the blood samples at approximately 4°C, 3,200×g for 15 min, and then stored at −70°C until analysis (Supplementary Materials). The pharmacokinetic parameters were calculated using WinNonlin software (Version 6.3) according to non-compartmental model.

M1 receptor = biological target: T3, M1 receptor (Homo sapiens, UniProt P11229); assay: M1 receptor functional assay (calcium flow, FLIPR); format: cell-based; conditions: CHO-K1/M1 cells, read-out: M1R, IC50
T3 sequence (P11229 1-460): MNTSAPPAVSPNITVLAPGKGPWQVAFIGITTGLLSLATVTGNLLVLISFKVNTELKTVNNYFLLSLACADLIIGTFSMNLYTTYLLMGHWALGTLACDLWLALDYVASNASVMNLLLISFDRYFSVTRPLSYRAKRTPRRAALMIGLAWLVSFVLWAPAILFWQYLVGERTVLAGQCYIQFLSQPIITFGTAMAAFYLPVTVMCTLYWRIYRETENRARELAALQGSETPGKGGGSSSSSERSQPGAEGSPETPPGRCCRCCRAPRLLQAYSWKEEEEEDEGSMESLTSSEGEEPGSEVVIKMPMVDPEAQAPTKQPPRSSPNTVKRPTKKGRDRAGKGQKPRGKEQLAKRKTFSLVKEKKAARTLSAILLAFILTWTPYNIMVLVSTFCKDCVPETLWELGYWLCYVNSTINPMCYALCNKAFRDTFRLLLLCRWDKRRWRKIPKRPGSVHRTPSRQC

[2] = rat, plasma, intravenous, 2 mg/kg, male SD rats
[3] = rat, plasma, oral, 10 mg/kg, male SD rats

Sequence of D2S receptor (P14416 1-414 isoform P14416-2): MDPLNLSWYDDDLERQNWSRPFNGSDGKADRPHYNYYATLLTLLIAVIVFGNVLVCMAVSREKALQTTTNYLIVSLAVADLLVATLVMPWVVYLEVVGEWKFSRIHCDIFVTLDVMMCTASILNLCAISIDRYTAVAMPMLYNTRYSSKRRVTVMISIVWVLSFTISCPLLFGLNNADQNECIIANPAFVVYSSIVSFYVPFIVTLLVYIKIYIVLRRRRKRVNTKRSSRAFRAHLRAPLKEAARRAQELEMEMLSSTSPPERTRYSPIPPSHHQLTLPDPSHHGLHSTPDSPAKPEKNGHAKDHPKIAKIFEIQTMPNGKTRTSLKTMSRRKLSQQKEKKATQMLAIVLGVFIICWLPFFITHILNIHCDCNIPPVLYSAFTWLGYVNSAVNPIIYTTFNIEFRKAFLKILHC

With `O=C1CCc2cc(OCCCN3CCC(c4noc5cc(F)ccc45)CC3)cc3c2N1CC3` [NH300094, 8-(3-(4-(6-fluorobenzo [d]isoxazol-3-yl)piperidin-1-yl)propoxy)-1,2,5,6-tetrahydro-4H-pyrrolo [3,2,1-ij] quinolin-4-one] the IC50 (D2S receptor) was 11.7 ± 9.38 nM, the IC50 (Alpha1A receptor) was 28.5 nM and the “effect on immobility time in the FST” value (male ICR mice) was “decreased immobility time”. For the same compound, the IC50 (5-HT1A receptor) was 85.6 ± 61.5 nM, the ED50 (male Wistar rats) was roughly 1.02 mg/kg and the bioavailability ([1]; male, SD, rat, plasma, oral, 10 mg/kg, oral 10 mg/kg vs intravenous 2 mg/kg, male SD rats) was roughly 87.6%. The “area under the concentration time-curves for time zero to infinity” value ([1]; oral administration, rats (rounded value in text)) was 14800 ng/mL*h, the AUC(0-inf) [1, 2] was 3380 ng·h/mL and the AUC(0-t) [1, 2] was 3370 ng·h/mL. It also gave a C0 [1, 2] of 10800 ng/mL, a clearance [1, 2] of 9.91 mL/min/kg and a half-life [1, 2] of 1.73 h. The Vd ([1]; rat, plasma, intravenous, 2 mg/kg, male SD rats, read-out: Vdss) was 0.379 L/kg, the AUC(0-inf) [1, 3] was 14800 ng·h/mL and the AUC(0-t) [1, 3] was 14800 ng·h/mL. The Cmax [1, 3] was 8710 ng/mL, the Tmax [1, 3] was 0.389 h and the half-life [1, 3] was 1.28 h. For the same compound, the IC50 (M1 receptor) was 3520 nM.

From publication PMC10848157, “Assessing NH300094, a novel dopamine and serotonin receptor modulator with cognitive enhancement property for treating schizophrenia” (Frontiers in Pharmacology, 2024)
